Laboratory results: paper PMC6309732 (ChemMedChem, 2016)

Key:
[1] = target: HIV-1 RT-associated RNA dependent DNA polymerase (Human immunodeficiency virus type 1 group M subtype B, UniProt P04585); experiment: biochemical
[2] = target: T1, HIV-1 RT-associated RNase H (Human immunodeficiency virus type 1 group M subtype B, UniProt P04585); experiment: HIV-1 DNA polymerase-independent RNase H activity determination; format: biochemical
HIV-1 RT heterodimer = HIV-1 RT heterodimer (Human immunodeficiency virus type 1 group M subtype B, UniProt P04585); experiment: Differential Scanning Fluorimetry; format: binding; conditions: 10 μM inhibitor, 300 nM HIV-1 RT; data not shown
[3] = Cytotoxicity in mock-infected MT-4 cells; format: cell-based; conditions: human
[4] = target: T1, HIV-1 RT-associated RNase H; experiment: RNase H assay with modified order of addition; format: biochemical; conditions: for Fold increase of IC50 versus the regular assay: inhibitor added after duplex substrate vs regular assay
HIV-2 (ROD strain) = experiment: Antiviral assay, HIV-2; format: cell-based; conditions: acutely infected MT-4 cells; at concentrations less than cytotoxic
HIV-1 (IIIB strain) = experiment: Antiviral assay, HIV-1; format: cell-based; conditions: acutely infected MT-4 cells; at concentrations less than cytotoxic

Row | SMILES | IC50 [1] [µM] | IC50 [2] [µM] | further results
1 | O=C(Nc1sc2c(c1C(=O)Nc1ccccn1)CCCCC2)c1ccccc1Br [Compound 23, 2-(2-Bromobenzamido)-N-(pyridin-2-yl)-5,6,7,8-tetrahydro-4H-cyclohepta[b]thiophene-3-carboxamide] | > 50 | 4.57 ± 0.01 | –
2 | O=C(Nc1sc2c(c1C(=O)Nc1ccccn1)CCCCC2)c1ccccc1[N+](=O)[O-] [Compound 24, 2-(2-Nitrobenzamido)-N-(pyridin-2-yl)-5,6,7,8-tetrahydro-4H-cyclohepta[b]thiophene-3-carboxamide] | – | 53.5 ± 1.7 | –
3 | Nc1ccccc1C(=O)Nc1sc2c(c1C(=O)Nc1ccccn1)CCCCC2 [Compound 26, 2-(2-Aminobenzamido)-N-(pyridin-2-yl)-5,6,7,8-tetrahydro-4H-cyclohepta[b]thiophene-3-carboxamide] | – | 14.9 ± 4.1 | –
4 | Nc1ccc(C(=O)Nc2sc3c(c2C(=O)Nc2ccccn2)CCCCC3)cc1 [Compound 27, 2-(4-Aminobenzamido)-N-(pyridin-2-yl)-5,6,7,8-tetrahydro-4H-cyclohepta[b]thiophene-3-carboxamide] | – | 21.4 ± 4.4 | –
5 | Cc1ccccc1C(=O)Nc1sc2c(c1C(=O)Nc1ccccn1)CCCCC2 [Compound 29, 2-(2-Methylbenzamido)-N-(pyridin-2-yl)-5,6,7,8-tetrahydro-4H-cyclohepta[b]thiophene-3-carboxamide] | – | 18.3 ± 1.8 | –
6 | COc1ccc(C(=O)Nc2sc3c(c2C(=O)Nc2ccccn2)CCCCC3)c(OC)n1 [Compound 30, 2,6-Dimethoxy-N-(3-(pyridin-2-ylcarbamoyl)-5,6,7,8-tetrahydro-4H-cyclohepta[b]thiophen-2-yl)nicotinamide] | – | 21.5 ± 1 | –
7 | COc1ccc(C(=O)Nc2sc3c(c2C(=O)Nc2ccccn2)CCCCC3)cc1OC [Compound 31, 2-(3,4-Dimethoxybenzamido)-N-(pyridin-2-yl)-5,6,7,8-tetrahydro-4H-cyclohepta[b]thiophene-3-carboxamide] | > 50 | 4.01 ± 1 | Effect on Tm of the RT heterodimer (HIV-1 RT heterodimer): no decreased Tm; CC50 at 5 days [3]: 6.24 µM; IC50 [4]: 20 ± 7 µM; Fold increase of IC50 versus the regular assay [4]: 5 fold; Inhibition of HIV-2 (ROD) replication (HIV-2 (ROD strain)): unable to affect viral replication; Inhibition of HIV-1 (IIIB) replication (HIV-1 (IIIB strain)): unable to affect viral replication; Fold decrease in RNase H potency relative to compound 33 ([2]; O-methylated hydroxyl groups vs catechol 33): 5 fold
8 | COc1ccc(C(=O)Nc2sc3c(c2C(=O)Nc2ccccn2)CCCCC3)c(O)n1 [Compound 32, 2-Hydroxy-6-methoxy-N-(3-(pyridin-2-ylcarbamoyl)-5,6,7,8-tetrahydro-4H-cyclohepta[b]thiophen-2-yl)nicotinamide] | – | 15.1 ± 1.3 | –
9 | O=C(Nc1sc2c(c1C(=O)Nc1ccccn1)CCCCC2)c1ccc(O)c(O)c1 [Compound 33, 2-(3,4-Dihydroxybenzamido)-N-(pyridin-2-yl)-5,6,7,8-tetrahydro-4H-cyclohepta[b]thiophene-3-carboxamide] | 20.9 ± 1.7 | – | Effect on Tm of the RT heterodimer (HIV-1 RT heterodimer): no decreased Tm; CC50 at 5 days [3]: 30.7 µM; IC50 [4]: 5.3 ± 0.2 µM; Fold increase of IC50 versus the regular assay [4]: 5 fold; Inhibition of HIV-2 (ROD) replication (HIV-2 (ROD strain)): unable to affect viral replication; Inhibition of HIV-1 (IIIB) replication (HIV-1 (IIIB strain)): unable to affect viral replication
10 | O=C(Nc1sc2c(c1C(=O)Nc1ccccn1)CCCCC2)c1cccs1 [Compound 34, N-(Pyridin-2-yl)-2-(thiophene-2-carboxamido)-5,6,7,8-tetrahydro-4H-cyclohepta[b]thiophene-3-carboxamide] | > 50 | 10.4 ± 1.96 | –
11 | CC(=O)Nc1sc2c(c1C(=O)Nc1ccccn1)CCCCC2 [Compound 35, 2-Acetamido-N-(pyridin-2-yl)-5,6,7,8-tetrahydro-4H-cyclohepta[b]thiophene-3-carboxamide] | – | > 100 | –
12 | O=C(Cc1ccccc1F)Nc1sc2c(c1C(=O)Nc1ccccn1)CCCCC2 [Compound 36, 2-(2-(2-Fluorophenyl)acetamido)-N-(pyridin-2-yl)-5,6,7,8-tetrahydro-4H-cyclohepta[b]thiophene-3-carboxamide] | > 50 | – | –
13 | O=C(Nc1sc2c(c1C(=O)Nc1ccccc1F)CCCCC2)c1ccccn1 [Compound 37, N-(3-((2-Fluorophenyl)carbamoyl)-5,6,7,8-tetrahydro-4H-cyclohepta[b]thiophen-2-yl)picolinamide] | – | 13.7 ± 1.6 | –
